System: human macrophage cell-line MonoMac-6 (MM6)
Experiment: Inhibition of macrophage proliferation (MM6 cell proliferation, WST-1 reagent)
Type: cell-based
Conditions: 46 hours, mean, n=5
Description: Cells from the human macrophage cell-line MonoMac-6 (MM6) (Ziegler-Heitbrock et al, Int. J. Cancer, 41, 456 (1988)) were cultured (37° C./5% CO2) in RPMI-1640 medium supplemented with 1 mM sodium pyruvate, 1×nonessential amino acids, 10 μg/mL insulin, 1 mM oxalacetic acid, 100 units/mL penicillin, 100 μg/mL streptomycin and 10% (v/v) fetal bovine serum. At the start of the experiment, MM6 cells were seeded in 96-well plates at a density of 1>10^5 cells/mL (100 μL per well). Proliferation of the MM6 cells was measured using the Cell Proliferation Reagent WST-1 (Roche Diagnostics Scandinavia AB, Bromma, Sweden) or by cell counting using a microscope. The WST-1 reagent is designed to be used for spectrophotometric quantification of e.g. cell growth in proliferation assays and was used according to the manufacturers' instructions. The wavelength for measuring absorbance was 450 nm. Stock solutions of pemirolast (potassium salt; purchased from American Custom Chemicals Corporation, San Diego, USA) were made in sterile saline. Pioglitazone (HCl salt; purchased from AK Scientific, Inc., Mountain View, Calif., USA) was dissolved in DMSO and then diluted in sterile saline leading to final DMSO concentrations in the MM6 incubations of 0.003%, 0.01% and 0.03% for the final pioglitazone concentrations of 0.1 μM, 0.3 μM and 1 μM, respectively. The effects of treatment with pioglitazone (alone and in combination) on MM6 proliferation were compared with control treatments containing DMSO at concentrations corresponding to the DMSO concentrations used in the different respective pioglitazone treatments. Untreated MM6 cells increased from 1×10^5 cells/mL at the start of the experiment to 1.4×10^5±0.06×10^5 cells/mL and 2.3×10^5±0.10×10^5 cells/mL after 24 and 48 hours, respectively (mean values±sem, n=4 for each of the three time-points). Pemirolast and/or pioglitazone were added at the start of the experiments and 46 hours later the effects of the drugs on MM6 cell proliferation were studied using the WST-1 reagent described above. The WST-1 reagent was added at 44 hours after start of the experiments and the average absorbance of untreated control cells exposed to the WST-1 reagent was 0.89 (n=5).

## CCc1ccc(CCOc2ccc(CC3SC(=O)NC3=O)cc2)nc1 (stereo not drawn) [pioglitazone]
0.1 μM pioglitazone, control with DMSO
  MM6 proliferation, of the proliferation of untreated control cells: 91%
0.3 μM pioglitazone, control with DMSO
  MM6 proliferation, of the proliferation of untreated control cells: 96%
1 μM pioglitazone, control with DMSO
  MM6 proliferation, of the proliferation of untreated control cells: 88%

## Cc1cccn2c(=O)c(-c3nnn[nH]3)cnc12 [pemirolast]
10 μM pemirolast
  MM6 proliferation, of the proliferation of untreated control cells: 101%
30 μM pemirolast
  MM6 proliferation, of the proliferation of untreated control cells: 124%
100 μM pemirolast
  MM6 proliferation, of the proliferation of untreated control cells: 102%
